Data from ChEMBL document CHEMBL1121590, “Synthesis and enzymatic and inotropic activity of some new 8-substituted and 6,8-disubstituted derivatives of adenosine cyclic 3',5'-monophosphate” (J Med Chem, 1980).

Target: Phosphodiesterase 4 (Homo sapiens, UniProt P27815+Q08499+Q07343+Q08493)
Experiment: not given
Details: Oryctolagus cuniculus; Kidney

`CCCCNc1ncnc2c1nc(Sc1ccc(Cl)cc1)n2[C@@H]1O[C@@H]2COP(=O)(O)O[C@H]2[C@H]1O` and `Nc1ncnc2c1nc(Sc1ccc(Cl)cc1)n2[C@@H]1O[C@@H]2COP(=O)(O)O[C@H]2[C@H]1O` cannot be ordered by Hydrolysis: less than 0.05 for the first, less than 0.05 for the second.

Going from `CCCCNc1ncnc2c1nc(SC)n2[C@@H]1O[C@@H]2COP(=O)(O)O[C@H]2[C@H]1O` to `CCCCNc1ncnc2c1nc(Br)n2[C@@H]1O[C@@H]2COP(=O)(O)O[C@H]2[C@H]1O`, the Hydrolysis falls from 0.26 to less than 0.05.

`Nc1ncnc2c1nc(SCCO)n2[C@@H]1O[C@@H]2COP(=O)(O)O[C@H]2[C@H]1O` and `CCCCSc1nc2c(N)ncnc2n1[C@@H]1O[C@@H]2COP(=O)(O)O[C@H]2[C@H]1O` cannot be ordered by Hydrolysis: less than 0.05 for the first, less than 0.05 for the second.

`O=P1(O)OC[C@H]2O[C@@H](n3c(SCc4ccccc4)nc4c(N5CCCC5)ncnc43)[C@H](O)[C@@H]2O1` and `O=P1(O)OC[C@H]2O[C@@H](n3c(SCc4ccccc4)nc4c(N5CCCCC5)ncnc43)[C@H](O)[C@@H]2O1` cannot be ordered by Hydrolysis: less than 0.05 for the first, less than 0.05 for the second.

`Nc1ncnc2c1nc(SCc1ccc(F)cc1)n2[C@@H]1O[C@@H]2COP(=O)(O)O[C@H]2[C@H]1O` and `COc1ccc(CSc2nc3c(N)ncnc3n2[C@@H]2O[C@@H]3COP(=O)(O)O[C@H]3[C@H]2O)cc1` cannot be ordered by Hydrolysis: less than 0.05 for the first, less than 0.05 for the second.

Compared with `Nc1nc2c(=S)[nH]cnc2n1[C@@H]1O[C@@H]2COP(=O)(O)O[C@H]2[C@H]1O`, `Nc1nc2c(Cl)ncnc2n1[C@@H]1O[C@@H]2COP(=O)(O)O[C@H]2[C@H]1O` is higher in Hydrolysis: 0.3 for the first, 0.74 for the second.

`Nc1ncnc2c1nc(O)n2[C@@H]1O[C@@H]2COP(=O)(O)O[C@H]2[C@H]1O` and `Nc1ncnc2c1nc(Cl)n2[C@@H]1O[C@@H]2COP(=O)(O)O[C@H]2[C@H]1O` [TOCLADESINE] cannot be ordered by Hydrolysis: less than 0.05 for the first, less than 0.05 for the second.

Going from `CNc1ncnc2c1ncn2[C@@H]1O[C@@H]2COP(=O)(O)O[C@H]2[C@H]1O` to `O=P1(O)OC[C@H]2O[C@@H](n3cnc4c(NCc5ccccc5)ncnc43)[C@H](O)[C@@H]2O1`, the Hydrolysis rises from 0.22 to 0.3.

`Nc1ncnc2c1nc(SCC(=O)[O-])n2[C@@H]1O[C@@H]2COP(=O)(O)O[C@H]2[C@H]1O.[Na+]` and `CCSc1nc2c(N)ncnc2n1[C@@H]1O[C@@H]2COP(=O)(O)O[C@H]2[C@H]1O` cannot be ordered by Hydrolysis: less than 0.05 for the first, less than 0.05 for the second.

`O=c1[nH]c2c(Cl)ncnc2n1[C@@H]1O[C@@H]2COP(=O)(O)O[C@H]2[C@H]1O` and `Nc1ncnc2c1nc(Br)n2[C@@H]1O[C@@H]2COP(=O)(O)O[C@H]2[C@H]1O` cannot be ordered by Hydrolysis: less than 0.05 for the first, less than 0.05 for the second.

`O=P1(O)OC[C@H]2O[C@@H](n3c(SCc4ccccc4)nc4c(SCc5ccccc5)ncnc43)[C@H](O)[C@@H]2O1` and `Nc1ncnc2c1nc(SCc1ccccc1)n2[C@@H]1O[C@@H]2COP(=O)(O)O[C@H]2[C@H]1O` cannot be ordered by Hydrolysis: less than 0.05 for the first, less than 0.05 for the second.

`O=P1(O)OC[C@H]2O[C@@H](n3c(Sc4ccc(Cl)cc4)nc4c(Nc5ccccc5)ncnc43)[C@H](O)[C@@H]2O1` and `Nc1ncnc2c1nc(Sc1ccc(Br)cc1)n2[C@@H]1O[C@@H]2COP(=O)(O)O[C@H]2[C@H]1O` cannot be ordered by Hydrolysis: less than 0.05 for the first, less than 0.05 for the second.

`Cc1ccccc1CSc1nc2c(N)ncnc2n1[C@@H]1O[C@@H]2COP(=O)(O)O[C@H]2[C@H]1O` and `Cc1ccccc1Sc1nc2c(N)ncnc2n1[C@@H]1O[C@@H]2COP(=O)(O)O[C@H]2[C@H]1O` cannot be ordered by Hydrolysis: less than 0.05 for the first, less than 0.05 for the second.

Going from `CCN(CC)c1ncnc2c1nc(N(CC)CC)n2[C@@H]1O[C@@H]2COP(=O)(O)O[C@H]2[C@H]1O` to `CCN(CC)c1nc2c(Cl)ncnc2n1[C@@H]1O[C@@H]2COP(=O)(O)O[C@H]2[C@H]1O`, the Hydrolysis rises from less than 0.05 to 0.1.

`Nc1ncnc2c1nc(SCc1ccc([N+](=O)[O-])cc1)n2[C@@H]1O[C@@H]2COP(=O)(O)O[C@H]2[C@H]1O` and `CCCCCSc1nc2c(N)ncnc2n1[C@@H]1O[C@@H]2COP(=O)(O)O[C@H]2[C@H]1O` cannot be ordered by Hydrolysis: less than 0.05 for the first, less than 0.05 for the second.

Going from `CCCCCNc1ncnc2c1nc(SCc1ccccc1)n2[C@@H]1O[C@@H]2COP(=O)(O)O[C@H]2[C@H]1O` to `O=P1(O)OC[C@H]2O[C@@H](n3cnc4c(=S)[nH]cnc43)[C@H](O)[C@@H]2O1`, the Hydrolysis rises from less than 0.05 to 1.1.

Target: not listed separately
Experiment: Inhibition of cAMP phosphodiesterase preparation from rabbit lung at a substrate concentration of 0.14 uM
Details: not given

First: CCCCNc1ncnc2c1nc(SC)n2[C@@H]1O[C@@H]2COP(=O)(O)O[C@H]2[C@H]1O
Second: CCCCSc1nc2c(N)ncnc2n1[C@@H]1O[C@@H]2COP(=O)(O)O[C@H]2[C@H]1O
The I50 of the first is 2.1-fold higher: 53 µM for the first, 25 µM for the second.

Going from `Nc1ncnc2c1nc(SCCO)n2[C@@H]1O[C@@H]2COP(=O)(O)O[C@H]2[C@H]1O` to `CCSc1nc2c(N)ncnc2n1[C@@H]1O[C@@H]2COP(=O)(O)O[C@H]2[C@H]1O`, the I50 rises from 20 µM to 33 µM (1.6-fold).

`O=P1(O)OC[C@H]2O[C@@H](n3c(SCc4ccccc4)nc4c(N5CCCC5)ncnc43)[C@H](O)[C@@H]2O1` and `O=P1(O)OC[C@H]2O[C@@H](n3c(SCc4ccccc4)nc4c(N5CCCCC5)ncnc43)[C@H](O)[C@@H]2O1` are within 1.5-fold of each other in I50: 5 µM for the first, 4.8 µM for the second.

`Nc1ncnc2c1nc(SCc1ccc(F)cc1)n2[C@@H]1O[C@@H]2COP(=O)(O)O[C@H]2[C@H]1O` and `COc1ccc(CSc2nc3c(N)ncnc3n2[C@@H]2O[C@@H]3COP(=O)(O)O[C@H]3[C@H]2O)cc1` are within 1.5-fold of each other in I50: 38 µM for the first, 30 µM for the second.

First: Nc1nc2c(=S)[nH]cnc2n1[C@@H]1O[C@@H]2COP(=O)(O)O[C@H]2[C@H]1O
Second: Nc1nc2c(Cl)ncnc2n1[C@@H]1O[C@@H]2COP(=O)(O)O[C@H]2[C@H]1O
The I50 of the first is 2.4-fold lower: 83 µM for the first, 200 µM for the second.

First: Nc1ncnc2c1nc(O)n2[C@@H]1O[C@@H]2COP(=O)(O)O[C@H]2[C@H]1O
Second: Nc1ncnc2c1nc(Cl)n2[C@@H]1O[C@@H]2COP(=O)(O)O[C@H]2[C@H]1O [TOCLADESINE]
The I50 of the first is 2.5-fold higher: 150 µM for the first, 59 µM for the second.

Going from `CNc1ncnc2c1ncn2[C@@H]1O[C@@H]2COP(=O)(O)O[C@H]2[C@H]1O` to `O=P1(O)OC[C@H]2O[C@@H](n3cnc4c(NCc5ccccc5)ncnc43)[C@H](O)[C@@H]2O1`, the I50 rises from 50 µM to 130 µM (2.6-fold).

Compared with `Nc1ncnc2c1nc(SCC(=O)[O-])n2[C@@H]1O[C@@H]2COP(=O)(O)O[C@H]2[C@H]1O.[Na+]`, `CCCCCSc1nc2c(N)ncnc2n1[C@@H]1O[C@@H]2COP(=O)(O)O[C@H]2[C@H]1O` is 27-fold lower in I50: 400 µM for the first, 15 µM for the second.

First: O=P1(O)OC[C@H]2O[C@@H](n3c(SCc4ccccc4)nc4c(SCc5ccccc5)ncnc43)[C@H](O)[C@@H]2O1
Second: Nc1ncnc2c1nc(SCc1ccccc1)n2[C@@H]1O[C@@H]2COP(=O)(O)O[C@H]2[C@H]1O
The I50 of the first is 12-fold lower: 4.6 µM for the first, 53 µM for the second.

Compared with `O=P1(O)OC[C@H]2O[C@@H](n3c(Sc4ccc(Cl)cc4)nc4c(Nc5ccccc5)ncnc43)[C@H](O)[C@@H]2O1`, `Nc1ncnc2c1nc(Sc1ccc(Br)cc1)n2[C@@H]1O[C@@H]2COP(=O)(O)O[C@H]2[C@H]1O` is 6.7-fold higher in I50: 36 µM for the first, 240 µM for the second.

`Cc1ccccc1CSc1nc2c(N)ncnc2n1[C@@H]1O[C@@H]2COP(=O)(O)O[C@H]2[C@H]1O` and `Cc1ccccc1Sc1nc2c(N)ncnc2n1[C@@H]1O[C@@H]2COP(=O)(O)O[C@H]2[C@H]1O` are within 1.5-fold of each other in I50: 33 µM for the first, 29 µM for the second.

First: CCN(CC)c1ncnc2c1nc(N(CC)CC)n2[C@@H]1O[C@@H]2COP(=O)(O)O[C@H]2[C@H]1O
Second: CCN(CC)c1nc2c(Cl)ncnc2n1[C@@H]1O[C@@H]2COP(=O)(O)O[C@H]2[C@H]1O
The I50 of the first is 6.2-fold lower: 13 µM for the first, 80 µM for the second.

First: Nc1ncnc2c1nc(SCc1ccc([N+](=O)[O-])cc1)n2[C@@H]1O[C@@H]2COP(=O)(O)O[C@H]2[C@H]1O
Second: CCCCCNc1ncnc2c1nc(SCc1ccccc1)n2[C@@H]1O[C@@H]2COP(=O)(O)O[C@H]2[C@H]1O
The I50 of the first is 1.7-fold higher: 27 µM for the first, 16 µM for the second.

With `O=P1(O)OC[C@H]2O[C@@H](n3cnc4c(=S)[nH]cnc43)[C@H](O)[C@@H]2O1` the I50 was 53 µM.

With `O=c1[nH]c2c(Cl)ncnc2n1[C@@H]1O[C@@H]2COP(=O)(O)O[C@H]2[C@H]1O` the I50 was greater than 400 µM.
